Assay results published in article PMC4501059, “Responding to the challenge of untreatable gonorrhea: ETX0914, a first-in-class agent with a distinct mechanism-of-action against bacterial Type II topoisomerases” (Scientific Reports, 2015).
Converted amounts (≈) assume the structure as drawn. Like-named read-outs stand apart in the source and are kept apart here.

Assays:
Mycoplasma genitalium = test system: Mycoplasma genitalium; set-up: method as in ref 3 (supplement); conditions: 11 tested; ref 3 (supplement); cited from earlier work
[1] = test system: mammalian myeloid cell lines; experiment: myeloid cytotoxicity (growth inhibition); format: cell-based; conditions: read-out: Myeloid IC50
Experimental: In vitro toxicology. Experiments for assessing micronuclei in mouse lymphoma cells^19 myeloid cytotoxicity^20 and erythroid cytotoxicity^21 were performed as described previously.

Streptococcus pyogenes = test system: Streptococcus pyogenes; set-up: method as in ref 2 (supplement); conditions: 1358 tested; ref 2 (supplement); cited from earlier work
Kv1.5 = Kv1.5 (Homo sapiens, UniProt P22460); experiment: In vitro ion channel function; format: cell-based; conditions: Ikr/Kv1.5 IC50, Rapidly activating K^+ delayed rectifier
Excerpt: (§1) Supplement srep11827-s1.doc, table 3 | column: Table S2: In vitro ion channel function IC50 (µM)

Ito/Kv4.3 = molecular target: T1, Ito/Kv4.3 (Homo sapiens, UniProt Q9UK17); experiment: In vitro ion channel function; format: cell-based; conditions: Ito/Kv4.3 IC50, Transient outward K^+ early repolarization
T1 sequence (Q9UK17 1-655): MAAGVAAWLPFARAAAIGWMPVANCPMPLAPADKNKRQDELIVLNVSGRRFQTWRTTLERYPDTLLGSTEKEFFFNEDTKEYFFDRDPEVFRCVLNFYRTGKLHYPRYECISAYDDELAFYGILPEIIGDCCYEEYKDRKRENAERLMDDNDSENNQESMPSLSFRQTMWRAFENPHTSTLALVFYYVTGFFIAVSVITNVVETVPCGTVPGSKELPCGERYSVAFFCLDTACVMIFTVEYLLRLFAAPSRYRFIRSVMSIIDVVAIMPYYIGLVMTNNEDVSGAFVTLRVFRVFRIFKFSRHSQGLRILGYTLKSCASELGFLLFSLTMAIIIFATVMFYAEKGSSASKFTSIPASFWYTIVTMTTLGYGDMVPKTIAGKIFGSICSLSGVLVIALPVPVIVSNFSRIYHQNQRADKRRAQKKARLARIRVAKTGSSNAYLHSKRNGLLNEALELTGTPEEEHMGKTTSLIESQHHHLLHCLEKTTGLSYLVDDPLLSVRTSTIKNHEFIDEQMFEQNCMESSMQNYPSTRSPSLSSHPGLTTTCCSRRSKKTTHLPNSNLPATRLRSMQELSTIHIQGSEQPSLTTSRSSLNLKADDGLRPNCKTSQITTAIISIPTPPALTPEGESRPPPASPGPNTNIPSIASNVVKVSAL
Excerpt: as §1

Iks/Kv7.1 = Iks/Kv7.1 (Homo sapiens, UniProt P51787); experiment: In vitro ion channel function; format: cell-based; conditions: Iks/Kv7.1 IC50, Slowly activating K^+ delayed rectifier
Excerpt: as §1

hCav1.2 = hCav1.2 (Homo sapiens, UniProt Q13936); experiment: In vitro ion channel function; format: cell-based; conditions: hCav1.2 IC50, Ca^2+ entry into excitable cells
Excerpt: as §1

hNav1.5 = hNav1.5 (Homo sapiens, UniProt Q14524); experiment: In vitro ion channel function; format: cell-based; conditions: hNav1.5 IC50, Initiation of cardiac action potential/QRS interval
Excerpt: as §1

hERG = hERG (Homo sapiens, UniProt Q12809); experiment: In vitro ion channel function
[2] = Single dose pharmacokinetics, rat; format: in vivo; conditions: Han-Wister rat (male)
Experimental: AZD0914 was analyzed in mouse, rat, dog, monkey plasma using a qualified method which was later validated for human plasma analysis. The validated human method is described below and is representative of the approach taken in other species. AZD0914 was determined in human plasma prepared with K2EDTA as an anticoagulant. AZD0914 and an internal standard (^13C2, ^15N2 AZD0914) were extracted from plasma with tert- butyl methyl ether. After evaporating to dryness under a stream of nitrogen, the residue was reconstituted and quantitated by reverse phase HPLC-MS/MS against a standard curve from 1.00 to 5000 ng/ml. Separation was achieved using a gradient which went from 55% to 85% methanol:acetonitrile (1:1) containing 0.2% formic acid as mobile phase B and 0.2% formic acid in water as mobile phase A at a flow rate of 0.60 ml/min through a Phenomonex Gemini C18 column (50 x 2.0 mm column, […]) heated using a Shimadzu CTO-20AC set to 40 °C. AZD0914 was detected in multiple reaction monitoring (MRM) mode by positive ion electrospray ionization using a Sciex API5500 (Toronto, Canada) mass spectrometer. The ion spray voltage was set to 5500 V and turboionspray temperature was 650 °C. AZD0914 was quantitated using the MRM transition 488.2 → 348.2 using a collision energy of 29 eV. The internal standard, (^13C2, ^15N2 AZD0914), was monitored using identical conditions except for the MRM transition of 492.2 → 348.2.

MRSA ATCC33591 = experiment: MIC (modal, CLSI broth microdilution); format: cell-based, S. aureus; conditions: Staphylococcus aureus, read-out: Modal MIC
Ureaplasma spp. = test system: Ureaplasma spp.; set-up: method as in ref 3 (supplement); conditions: 21 tested; ref 3 (supplement); cited from earlier work
S. aureus Topo IV = S. aureus Topo IV (Staphylococcus aureus, UniProt P0C1S7+P0C1U9); experiment: S. aureus Topo IV cleaved complex ligation assay; format: biochemical; conditions: free Mg2+ 0.06 μM to 8 mM
[3] = hepatocyte intrinsic clearance; conditions: human, hepatocytes
[4] = hepatocyte intrinsic clearance; format: in vitro ADME; conditions: male, Han-Wister, rat hepatocytes
Excerpt: Supplement srep11827-s1.doc, table 4 | column: Han-Wister rat (male)

[5] = test system: S. pneumoniae ARC2205 (ERQR); experiment: MIC (CLSI broth microdilution); format: cell-based
Mycoplasma pneumoniae = test system: Mycoplasma pneumoniae; set-up: method as in ref 3 (supplement); conditions: 21 tested; ref 3 (supplement); cited from earlier work

C[C@@H]1CN2c3c(cc4c(N5C(=O)OC[C@@H]5C)noc4c3F)CC3(C(=O)NC(=O)NC3=O)[C@H]2[C@H](C)O1 [ETX0914]
MIC90 (Mycoplasma genitalium): 1.0^3 µg/ml
MIC Range (Mycoplasma genitalium): 0.5 to 1.0 µg/mL
IC50 [1]: > 100 µM
MIC90 (Streptococcus pyogenes): 0.25^2 µg/ml
MIC Range (Streptococcus pyogenes): ≤ 0.015 to 0.5 µg/mL
IC50 (Kv1.5): > 333 µM
IC50 (Ito/Kv4.3): 216 µM
IC50 (Iks/Kv7.1): > 333 µM
IC50 (hCav1.2): 326 µM
IC50 (hNav1.5): > 333 µM
IC50 (hERG; hERG IC50, K^+ rectifying current/QT interval): 316 µM
margin of ion channel IC50 relative to Cmax (hERG; ion channels including hERG, Cmax at highest 4000 mg Phase 1 dose): greater than 10 fold
Ka [2]: 1.6 h⁻¹
clearance ([2]; plasma, IV 10 mg/kg, read-out: Clp (IV)): 22 mL/min/kg
half-life ([2]; plasma, IV 10 mg/kg, read-out: T1/2 (IV) (converted)): 42 min
Vd ([2]; plasma, IV 10 mg/kg, read-out: Vss (IV)): 1.2 L/kg
bioavailability ([2]; plasma, IV 10 / PO 10 mg/kg): 34%
Cmax ([2]; plasma, PO 10 mg/kg): 1700 nM
half-life ([2]; plasma, PO 10 mg/kg, read-out: T1/2 (PO) (converted)): 108 min
MIC (MRSA ATCC33591): 0.125 µg/mL (≈ 0.256 µM)
MIC90 (Ureaplasma spp.): 1.0^3 µg/ml
MIC Range (Ureaplasma spp.): 0.125 to 2 µg/mL
re-ligation of inhibitor-induced cleaved DNA on removal of Mg2+ (S. aureus Topo IV): No ligation is observed
hepatocyte CLint [3]: 1 µL/min/1e6 cells
hepatocyte CLint at 1 µM [4]: 10 µL/min/1e6 cells
MIC: S. pneumoniae ARC2205 (ERQR) [5]: 0.125 µg/mL (≈ 0.256 µM)
MIC90 (Mycoplasma pneumoniae): 1.0^3 µg/ml
MIC Range (Mycoplasma pneumoniae): 0.5 to 1.0 µg/mL
